In patent US20240279214A1, “ALPHA4 BETA7 INEGRIN ANTAGONISTS AND USES THEREOF” (XinThera, Inc., priority 2022, published 2024):

The compounds below were run against T1, a4b7 integrin interaction with MadCAM-1 (Homo sapiens, UniProt P13612+P26010) (assay: a4b7 Cell Capture Assay (RPMI8866 cells on MAdCAM-1 Fc coated plates)). Settings: 50% human serum, 1 mM MgCl2, 1 hour incubation, CellTiter-Glo luminescence, read-out: a4B7 cell capture assay RMPI8866-MadCAM EC50.
T1 construct: capture of a4b7 integrin expressing cells, RPMI8866; endogenous in cells; host or cells: RPMI8866
T1 sequence (P13612 34-1032): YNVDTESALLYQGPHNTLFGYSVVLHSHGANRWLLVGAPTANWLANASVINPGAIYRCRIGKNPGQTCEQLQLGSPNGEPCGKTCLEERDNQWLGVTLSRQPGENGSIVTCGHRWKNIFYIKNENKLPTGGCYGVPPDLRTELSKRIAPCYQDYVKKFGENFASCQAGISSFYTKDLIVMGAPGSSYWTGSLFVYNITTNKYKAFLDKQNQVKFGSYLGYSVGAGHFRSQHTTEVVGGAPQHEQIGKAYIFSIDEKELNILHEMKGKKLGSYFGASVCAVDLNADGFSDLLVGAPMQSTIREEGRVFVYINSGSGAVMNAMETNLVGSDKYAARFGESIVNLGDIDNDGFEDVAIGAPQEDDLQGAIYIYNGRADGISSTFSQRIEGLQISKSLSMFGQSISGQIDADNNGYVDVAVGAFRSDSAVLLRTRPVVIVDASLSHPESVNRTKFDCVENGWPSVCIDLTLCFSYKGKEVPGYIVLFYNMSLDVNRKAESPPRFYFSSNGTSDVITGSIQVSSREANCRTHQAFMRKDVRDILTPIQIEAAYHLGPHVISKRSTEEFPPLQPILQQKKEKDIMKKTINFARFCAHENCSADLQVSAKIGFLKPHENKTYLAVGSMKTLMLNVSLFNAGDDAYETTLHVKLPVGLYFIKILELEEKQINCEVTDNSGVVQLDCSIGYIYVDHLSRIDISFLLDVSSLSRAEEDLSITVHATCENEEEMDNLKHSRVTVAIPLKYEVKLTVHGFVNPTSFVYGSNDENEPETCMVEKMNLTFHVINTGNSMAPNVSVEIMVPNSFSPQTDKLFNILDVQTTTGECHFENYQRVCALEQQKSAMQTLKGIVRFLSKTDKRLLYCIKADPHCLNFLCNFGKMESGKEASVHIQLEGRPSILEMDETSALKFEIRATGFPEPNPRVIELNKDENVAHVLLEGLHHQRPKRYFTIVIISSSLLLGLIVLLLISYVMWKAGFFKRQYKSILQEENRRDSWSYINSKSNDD
T1 sequence (P26010 20-798): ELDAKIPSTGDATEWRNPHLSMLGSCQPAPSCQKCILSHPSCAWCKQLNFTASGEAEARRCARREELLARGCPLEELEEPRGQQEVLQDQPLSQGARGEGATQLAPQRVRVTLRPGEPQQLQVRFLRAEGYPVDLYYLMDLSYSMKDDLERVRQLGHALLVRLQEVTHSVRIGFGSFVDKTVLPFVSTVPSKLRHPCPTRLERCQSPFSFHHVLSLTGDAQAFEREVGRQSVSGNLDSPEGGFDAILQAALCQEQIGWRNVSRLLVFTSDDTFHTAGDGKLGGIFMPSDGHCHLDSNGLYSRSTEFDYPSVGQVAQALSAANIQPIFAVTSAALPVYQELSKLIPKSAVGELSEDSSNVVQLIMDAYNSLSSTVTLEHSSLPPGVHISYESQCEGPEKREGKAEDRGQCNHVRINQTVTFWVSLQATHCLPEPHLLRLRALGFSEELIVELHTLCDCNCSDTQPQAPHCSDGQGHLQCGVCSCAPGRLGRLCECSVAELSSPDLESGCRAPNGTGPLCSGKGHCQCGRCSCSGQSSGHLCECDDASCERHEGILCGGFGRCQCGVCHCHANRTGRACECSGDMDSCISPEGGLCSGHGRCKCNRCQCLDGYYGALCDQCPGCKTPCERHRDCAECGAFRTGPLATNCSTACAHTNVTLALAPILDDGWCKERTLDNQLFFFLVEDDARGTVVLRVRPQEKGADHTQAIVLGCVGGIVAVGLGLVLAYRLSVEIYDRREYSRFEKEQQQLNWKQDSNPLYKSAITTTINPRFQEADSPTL
Assay type: cell-based
Procedure, shortened: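 RPMI8866 cells (1.0×10^6 cells/mL) in 1 mM MgCl2, 25 mM HEPES, 50% human serum were added to plates coated with human MAdCAM-1–IgG1 Fc (1.0 μg/mL) and exposed to compound (9-point, 0.08–1000 nM, 0.1% DMSO) for 1 h at 37 °C. Bound cells were read by CellTiter-Glo luminescence. IC50 came from 4-parameter fit of normalized % inhibition.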

SMILES	EC50
O=C(O)C[C@@H]1NC(=O)[C@@H](n2cc(CCN3CC(F)C3)c(C(F)(F)F)cc2=O)c2cccc(c2)Oc2cccc(C(F)(F)F)c2-c2cc1c(F)c(C(F)(F)F)c2 (relative stereo) [Example 13, [(14R*,17S)-19-fluoro-14-{5-[2-(3-fluoroazetidin-1-yl)ethyl]-2-oxo-4-(trifluoromethyl)pyridin-1-yl}-15-oxo-3,20-bis(trifluoromethyl)-8-oxa-16-azatetracyclo[16.3.1.1^{9,13}.0^{2,7}]tricosa-1(22),2(7),3,5,9,11,13(23),18,20-nonaen-17-yl]acetic acid]	> 1000 nM
Cc1cccc2c1-c1cc(C(F)F)c(F)c(c1)[C@H](CC(=O)O)NC(=O)[C@@H](n1cc(CCN3CC(F)C3)c(C(F)(F)F)cc1=O)c1cc(ccc1F)O2 (relative stereo) [Example 37, [(14R*,17S)-20-(difluoromethyl)-12,19-difluoro-14-{5-[2-(3-fluoroazetidin-1-yl)ethyl]-2-oxo-4-(trifluoromethyl)pyridin-1-yl}-3-methyl-15-oxo-8-oxa-16-azatetracyclo[16.3.1.1^{9,13}.0^{2,7}]tricosa-1(22),2(7),3,5,9,11,13(23),18,20-nonaen-17-yl]acetic acid]	1.3 nM
Cc1cc2cc(c1F)[C@H](CC(=O)O)NC(=O)[C@@H](n1cc(CCN3CC(F)C3)c(C(F)(F)F)cc1=O)c1cc(ccc1F)Oc1cc(F)cc(C)c1-2 (relative stereo) [Example 26, [(14R*,17S)-5,12,19-trifluoro-14-{5-[2-(3-fluoroazetidin-1-yl)ethyl]-2-oxo-4-(trifluoromethyl)pyridin-1-yl}-3,20-dimethyl-15-oxo-8-oxa-16-azatetracyclo[16.3.1.1^{9,13}.0^{2,7}]tricosa-1(22),2(7),3,5,9,11,13(23),18,20-nonaen-17-yl]acetic acid]	1.3 nM
Cc1cc2cc(c1F)[C@H](CC(=O)O)NC(=O)[C@@H](n1cc(CCCN3CCC3)c(C(F)(F)F)cc1=O)c1cc(ccc1F)Oc1cccc(C)c1-2 (single isomer, unassigned) [Example 21]	0.079 nM
Cc1cccc2c1-c1cc(c(F)c(C(F)(F)F)c1)[C@H](CC(=O)O)NC(=O)[C@@H](n1cc(CCN(C)C)c(C(F)(F)F)cc1=O)c1cccc(c1)O2 (relative stereo) [Example 16, [(14R*,17S)-14-{5-[2-(dimethylamino)ethyl]-2-oxo-4-(trifluoromethyl)pyridin-1-yl}-19-fluoro-3-methyl-15-oxo-20-(trifluoromethyl)-8-oxa-16-azatetracyclo[16.3.1.1^{9,13}.0^{2,7}]tricosa-1(22),2(7),3,5,9,11,13(23),18,20-nonaen-17-yl]acetic acid]	14 nM
Cc1cc(C(F)(F)F)cc2c1-c1cc(c(F)c(C(F)(F)F)c1)[C@H](CC(=O)O)NC(=O)[C@@H](n1cc(CCN3CC(F)C3)c(C(F)(F)F)cc1=O)c1cccc(c1)O2 (relative stereo) [Example 5, [(14R*,17S)-19-fluoro-14-{5-[2-(3-fluoroazetidin-1-yl)ethyl]-2-oxo-4-(trifluoromethyl)pyridin-1-yl}-3-methyl-15-oxo-5,20-bis(trifluoromethyl)-8-oxa-16-azatetracyclo[16.3.1.1^{9,13}.0^{2,7}]tricosa-1(21),2(7),3,5,9,11,13(23),18(22),19-nonaen-17-yl]acetic acid]	330 nM
Cc1cccc2c1-c1cc(C3CC3)c(F)c(c1)[C@H](CC(=O)O)NC(=O)[C@@H](n1cc(CCN3CC(F)C3)c(C(F)(F)F)cc1=O)c1cccc(c1)O2 (relative stereo) [Example 9, [(14R*,17S)-20-cyclopropyl-19-fluoro-14-{5-[2-(3-fluoroazetidin-1-yl)ethyl]-2-oxo-4-(trifluoromethyl)pyridin-1-yl}-3-methyl-15-oxo-8-oxa-16-azatetracyclo[16.3.1.1^{9,13}.0^{2,7}]tricosa-1(21),2(7),3,5,9,11,13(23),18(22),19-nonaen-17-yl]acetic acid]	72 nM
Cc1cc2cc(c1F)[C@H](CC(=O)O)NC(=O)[C@@H](n1cc(CCN3CC(F)C3)cc(C)c1=O)c1cc(ccc1F)Oc1cccc(C)c1-2 (single isomer, unassigned) [Example 66]	0.4 nM
Cc1cccc2c1-c1cc(C3CC3)c(F)c(c1)[C@H](CC(=O)O)NC(=O)[C@@H](n1ccc(C(F)(F)F)cc1=O)c1cc(ccc1F)CO2 (single isomer, unassigned) [Example 78]	360 nM
Cc1cccc2c1-c1cc(c(F)c(C(F)(F)F)c1)[C@H](CC(=O)O)NC(=O)[C@@H](n1c(=O)c3ccncc3n(C)c1=O)c1cc(ccc1F)CO2 (single isomer, unassigned) [Example 67]	190 nM
Cc1cc2cc(c1F)[C@H](CC(=O)O)NC(=O)[C@@H](n1cc(CCN3CC(F)C3)c(C(F)(F)F)cc1=O)c1cc(ccc1F)Oc1cc(C3COC3)cc(C)c1-2 (single isomer, unassigned) [Example 57]	2.6 nM
Cc1cc2cc(c1F)[C@H](CC(=O)O)NC(=O)[C@@H](n1cc(CCN3CC(F)C3)c(C(F)(F)F)cc1=O)c1cc(ccc1F)Oc1cccc(Cl)c1-2 (relative stereo) [Example 19, [(14R*,17S)-3-chloro-12,19-difluoro-14-{5-[2-(3-fluoroazetidin-1-yl)ethyl]-2-oxo-4-(trifluoromethyl)pyridin-1-yl}-20-methyl-15-oxo-8-oxa-16-azatetracyclo[16.3.1.1^{9,13}.0^{2,7}]tricosa-1(22),2(7),3,5,9,11,13(23),18,20-nonaen-17-yl]acetic acid]	0.84 nM
Cc1cccc2c1-c1cc(C3CC3)c(F)c(c1)[C@H](CC(=O)O)NC(=O)[C@@H](n1cc(CCN3CC(F)C3)c(C(F)(F)F)cc1=O)c1cc(ccc1F)O2 (relative stereo) [Example 24, [(14R*,17S)-20-cyclopropyl-12,19-difluoro-14-{5-[2-(3-fluoroazetidin-1-yl)ethyl]-2-oxo-4-(trifluoromethyl)pyridin-1-yl}-3-methyl-15-oxo-8-oxa-16-azatetracyclo[16.3.1.1^{9,13}.0^{2,7}]tricosa-1(22),2(7),3,5,9,11,13(23),18,20-nonaen-17-yl]acetic acid]	1.9 nM
Cc1cc2cc(c1F)[C@H](CC(=O)O)NC(=O)[C@@H](n1cc(CCN3CCC(F)(F)CC3)c(C(F)(F)F)cc1=O)c1cc(ccc1F)COc1cccc(C)c1-2 (single isomer, unassigned) [Example 62]	33 nM
Cc1cccc2c1-c1cc(C3CC3)c(F)c(c1)[C@H](CC(=O)O)NC(=O)[C@@H](n1ccc(C(F)(F)F)cc1=O)c1cc(ccc1F)O2 (single isomer, unassigned) [Example 73]	27 nM
Cc1cc2cc(c1F)[C@H](CC(=O)O)NC(=O)[C@@H](n1cc(CCN3CC(F)C3)c(C(F)(F)F)cc1=O)c1cc(ccc1F)COc1nn(CC3CC3)cc1-2 (single isomer, unassigned) [Example 70]	> 100 nM
